Source: patent US11155643B2, “Glucan kinases and methods for processing starch using the same” (University of Kentucky Research Foundation, priority 2017, dated 2021)
Substitutions are numbered along the chain they refer to. Names and notes keep the numbering of the source. “Also recorded” adds a separate entry of the source.

B1: truncated Cm-GWD construct (residues 511-1572): truncated Cm-GWD encoding the second predicted CBM and catalytic dikinase domain (protein)
chain: MTILGLERRSLDDDGETVICFSVEEDGFALRVHADLSPLVIHWGIARHRVTEFLQPDESLAVETKGRTYRFENKAMRTEFVPDEHHQGTYYAEIHLKKEHAPRAVTFVLFNPELNRWYRAEGGGNFVLRMDLESFSQLPGSVGKHEDVAQKIIEVEVEYGSWTLMHRYNLANDILRNSMSALDADLLQIVFVWLRYSFLRQLDWQRSYNTQPRLLAHAQEQLTTTLAQVFVSRPDLRLWVRLCLSMLGRGGGNGQRIRDDILRIMHKHHIPETPGHFMEQWHQKLHNNTTPDDVAICESYLAFLRSNGDKNVFYETLQKHGVTKERLASYERPIFAEVQTYPCDTNSLIHDFEEYLHVLKSVHSGTDLAVVLDYARWTLDQELISKVEHIQSVRAELMASPQGALEFSFLIAEARKMLQSTLEHVEDPTRVRDMLFLDLALDELARLAVESQGLADYVAETDVQKACNLLVVLAQHVGWSMLSSAFLETSYDLAALVYGIQSDVQLQEPDFGLRLYATMERLMDCVGHDVVERLHHDVQPKAVYIGVGCNIDQKVVTLFSEELIRGQAAFALAQVLRPLMRNIRKQANLGNWQVISPGSCTGQGAVFDELLSIQYKTFAEPTVAFVRRISGEEEIPTGMVGLITTDTLDILSHCAVRARNEHVVLACCFSEELFDQLTERFRGAWVAVRSLTDGSLDFQPIQEGAGRTTAADTTDGASEHAQRRAVSMRSDIEKKPVKSVLGIAQFNTQRGGSKSNSLAKLIRVIPDWIHIPPCALLPFGVCEQVLAEAQNSDVGERFQQLMAELDGKGPTDDCSALLARLRHCVRQLAPSDTFMKELQQVLQHEGFHSIDNLDMRRAWECILDVWASKFNDRAFLALRKAGAVGKTSLSSLYMAVLVQEVVPADYAFVLHTKNPFTGEPSEIYGELVHGLGEVLVGNYPGRALGFTYSKSTGQVRVCNYPSKTKALIPRGGLIFRSDSNGEDLEDFAGAGLFDSILMQPAEEVVVRYRELKILQDKAYLERILSKIGKCGIEIESNCGNKPQDIEGCICGEDVYVVQSRDQV
modifications: Fragment of Cyanidioschyzon merolae GWD polypeptide
notes: truncated Cm-GWD encoding the second predicted CBM and catalytic dikinase domain
B2: Cm-GWD H1162A: active site mutant (H1162A) of Cm-GWD 511C fragment (protein)
chain: B1 chain with H653A
modifications: Fragment of Cyanidioschyzon merolae GWD polypeptide

Test: starch-phosphorylation assay (33P-β-ATP radio-label incorporation into starch)
Format: biochemical, Arabidopsis
Settings: for ability to phosphorylate starch (specific activity): FIG. 2, FIG. 3
Protocol: FIG. 8 includes the framework for the C6 versus C3 assay. To label the C6-position, non-phosphorylated starch is incubated in the presence of GWD and ^33P-β-ATP, the protein and label are washed away, and the starch is incubated in the presence of ATP and PWD. The C3 position is labeled in a similar manner, except ^33P-β-ATP is used with PWD. These products are then used as substrates in dephosphorylation assays. A starch-phosphorylation assay is routinely used in the lab to measure the specific activity of protein constructs. This assay has 3 benefits: it utilizes an endogenous substrate, measures the amount of phosphate added to glucose (dikinase activity), and allows comparison of addition to the C3- and C6-positions (site-specific activity) (FIG. 8). Phosphate-free starch was isolated from plants lacking the dikinase GWD, and the sample dialyzed to remove free phosphate. To measure dikinase activity, this phosphate-free starch was used as the substrate. The starch was incubated with the dikinase in question along with ^33P-β-ATP, the ^33P-β-ATP and dikinase was washed out, and radio-label incorporation into the starch was measured.

Molecule | activity compared with At-GWD and At-PWD (FIG. 2) | ability to phosphorylate starch (specific activity) | phosphorylation of starch by chimeric CBM-dikinase (phosphate-less Arabidopsis (sex1-3) starch or potato starch, FIG. 11A) | priming of starch for phosphorylation by wild-type AtPWD (sex1-3 starch pretreated with the enzyme, FIG. 11B)
Cm-GWD: full length Cyanidioschyzon merolae glucan, water dikinase, amino acids 1-1572 | between that of At-GWD and At-PWD | robust specific activity |  | 
NcCBM20-AtPWD: CBM20 of Neurospora crassa NCU08746 fused N-terminally to the dikinase domain of PWD |  |  | robustly phosphorylated starch | served to prime wild-type AtPWD; also recorded: to a greater extent than starch pretreated with wild-type StGWD
B1 |  | active glucan dikinase |  | 
B2 |  | lacked activity |  | 
